Patent US20030032771A1, “Peptide inhibitors of cellular proliferation” (priority 2001, published 2003)

Test system: Drosophila early embryos (syncytial blastoderm)
Assay: Cytological analysis of mitosis in live Drosophila melanogaster embryos after microinjection (time-lapse confocal microscopy)
Type: in vivo
Procedure: Embryo microinjections. Microinjections of 0-2 hour Drosophila embryos were carried out as described previously (Sharp et al., J. Cell Biol. 144:125-138 (1999)). Briefly, embryos were initially injected with rhodamine-conjugated bovine tubulin (purchased from Molecular Probes or made in our own laboratory) allowed to recover for 5 minutes and then injected with antibodies or with buffer alone for controls. Because, in our hands, tubulin injections prior to the cortical migration of nuclei at cycle 10 […] normally halts development, embryos were injected with antibodies during cycle 11.
Time-lapse laser scanning confocal microscopy. All images were acquired on a Leica TCS SP confocal microscope run by the Leica TCS software. Time-series were generated using the ‘Time Series’ function contained in the control panel. Each image results from two accumulated (averaged) scans of the sample and new images were acquired every 5 seconds. Because changes in the MT arrays of early embryos occur so quickly, all of the images shown and analyzed in this study represent 1 focal plane (no z-series' were performed). This allowed for the highest temporal and spatial resolution with the least amount of bleaching and other damage resulting from multiple laser scans.
The peptide expressed as described in Example 1 was delivered to Drosophila early embryos (synicytial blastoderm) by microinjections. Drosophila is a much studied organism; its genome has been fully sequenced and its genetics and biochemistry are well understood. In addition, it provides a convenient system for live cytological analyses of mitosis. In the early embryo (syncytial blastoderm) the nuclei form a two-dimensional sheet interconnected by cytoplasm, which proceed through mitosis meta-cynchronously. Because of this, it is possible to inject fluorescent probes like rhodamine tubulin into fly embryos that are transgenically carrying Green Fluorescent protein (GFP)-labeled chromosomes to watch chromosome move on spindle microtubules in real-time. […]

## GEKETPVQKCQRLQIEMNELLNEVAALQVDRKVADEEKQSYDAVVATVISTAR (Drosophila melanogaster) [peptide underlined in FIG. 4]
Embryo microinjected with peptide, still images at about 80 seconds intervals, FIG. 5 panels C-E, rhodamine tubulin, GFP-histone
  formation of two daughter nuclei on mitotic spindles (chromosome separation from the metaphase plate): no spindles upon which two daughter nuclei are formed
Embryos injected with the peptide, during mitosis
  defects in spindle structure: no significant defects in spindle structure
Initial studies, peptide-injected Drosophila embryos
  ability of chromosomes to separate in proliferative cells: strongly and specifically inhibits
